From patent US12411143B2, “CD146 and uses thereof as a biomarker and as a therapeutic target in the diagnosis and treatment of fibrosis” (ASSISTANCE PUBLIQUE HÔPITAUX DE MARSEILLE, priority 2018, dated 2025)

How the values were obtained:
[1] = tested on: human renal fibroblasts; test: α-SMA and vimentin mRNA expression in primary culture of human renal fibroblasts; type: cell-based; settings: sCD146 50 ng/ml, versus control without treatment
Experimental: The effect of sCD146 (50 ng/ml) was examined on primary culture from human fibroblasts. The effect of 500 ng/ml anti-sCD146 mAb administrated either alone (Ac) or with sCD146.
Results are mean values +/−SE of 3 experiments and expressed as fold change versus control condition without treatment.
The effect of anti-sCD146 treatment was observed on the mRNA expression of α-SMA and vimentin in human renal fibroblast in (in vitro) culture.

[2] = tested on: Human cardiac fibroblasts (HCFs); test: Cell proliferation of human cardiac fibroblasts (BrdU assay); type: cell-based
Experimental: Human cardiac fibroblasts (HCFs) (PromoCell) are grown in Fibroblast Growth Medium 3 Supplement Pack (PromoCell) in an environment at 37° C. with controlled atmosphere. The HCFs are grown between passages 3 and 7.
To perform the stimulations, the fibroblasts are seeded at a density of 30 000 cells/cm^2 in complete culture medium. After 24 hours of adhesion, the cell culture medium is replaced with medium not containing growth factor (minimal medium) for 4 hours.
This medium is then replaced with minimal medium supplemented with 25, 50, 75 or 100 ng/mL of CD146s or with 2.5, 5 or 10 ng/mL of TGF-β for the proliferation study.
Cell proliferation is determined using a proliferation kit (BrdU Assay, Roche). An anti-BrdU antibody diluted 1/100 in its diluent solution is incubated for 90 minutes at 37° C. After removal and rinsing of excess antibody, a second antibody directed specifically against anti-BrdU and coupled to peroxidase is incubated for 30 minutes at room temperature and then removed. Detection is performed by the addition of 100 μL of enzyme substrate. […] Staining intensity, proportional to BrdU incorporation, is read on a spectrophotometer at 450 nm. The results are calculated by subtracting the background noise observed in a culture well containing no cells but having received the same amount of BrdU. Percentage of proliferation is then calculated for each condition. […]

[3] = tested on: chorio-allantoic membrane of the chick embryo; test: Chorio-allantoic membrane assay; type: in vivo; settings: 25 ng/ml or 50 ng/ml, 48 h
Experimental: D: Yolk sac membrane assays were performed in the presence of 25 ng/ml or 50 ng/ml I5-13-sCD146 and I10-sCD146 for 48 h and compared to control. Representative pictures of 4 different experiments are given.
The chorio-allantoic membrane of the chick embryo assay (CAM) was performed using a previously described protocol (Beckers et al., 1997).
The chorio-allantoic membrane of the chick embryo assay (CAM) was surgically removed and fixed in 10% buffered formaldehyde for 10 hours, dehydrated in graded alcohol, cleared in xylene and embedded in paraffin. 5 μm thick sections were cut in a plane parallel to the surface of the CAM and stained by hematoxylin-eosin which was observed under a light photomicroscope.

[4] = tested on: b-catenin/TCF transcription activity; test: b-catenin/TCF transcription assay (luciferase) in Mouse Embryonic Fibroblasts; type: cell-based; settings: MEF from CD146 KO mice treated with bleomycin
Experimental: B: Activation of canonical Wnt signalling (b-catenin/TCF transcription activity; Luciferase assay) was estimated in Mouse Embryonic Fibroblasts (MEF) from CD146 KO and WT mice. MEF were treated or not with bleomycin in the presence or absence of shed sCD146, I5-13-sCD146 or I10-sCD146. Results are the mean values +/−SEM of 5 independent experiments.
HUVEC were obtained as previously described and were cultured in EGM2 medium (Kaspi et al., 2017). MEF (Mouse Embryonic Fibroblasts) were isolated from day 13. Embryos from CD146 KO or WT mice were isolated and cultured as previously described (Xu J., 2005).
Luciferase assay was performed as previously described (Kaspi et al., 2017).

[5] = tested on: renal and cardiac endothelial cells; test: In vitro endothelial-mesenchymal transition; type: cell-based
[6] = tested on: ECFC; test: Permeability of ECFC monolayer to dextran-FITC; type: cell-based, human; settings: treatment with recombinant proteins
Experimental: D: ECFC were transfected with siRNA targeting ADAM10 or Tace and with a control siRNA (C). The permeability of the ECFC monolayer grown on semi-permeable filters was determined using dextran-FITC. Results are the mean values+/−SEM of 3 experiments.
E: ECFC were transfected with plasmid vectors encoding ADAM10 (p-ADAM10) or Tace (p-Tace) and with a control plasmid vector (C). The permeability of the ECFC monolayer grown on semi-permeable filters was determined using dextran-FITC. Results are the mean values+/−SEM of 3 experiments. *: P<0.05, **: P<0.01, ***: P<0.001, experimental vs Control.
ECFC were seeded at 60,000 cells per well on membrane inserts (porosity 1 μm) of a 24-multiwell double chamber system (Multiwell Insert System, BD Biosciences, Le Pont de Claix, France) after siRNA transfection or not. Confluent endothelial monolayers were then incubated for 24 h in EGM-2 medium in the presence or absence of the different forms of sCD146. The FITC-dextran (sigma) was added at the apical surface of the cells and was allowed to migrate for 1.5 h at 37° C. Basolateral FITC-dextran was then measured using a Cytofluor Series 4000 Fluorescence (PerSeptiveBiosystems, Framingham, MA).

## sCD146: recombinant human soluble form of CD146 corresponding to the shed sCD146, obtained from Biocytex
[1]
  α-SMA and vimentin mRNA expression: increase in α-SMA and vimentin mRNA expression
[2]; 25, 50, 75 or 100 ng/mL of CD146s
  cell proliferation of cardiac fibroblasts: significant, dose-dependent increase in cell proliferation
[2]; HCFs
  amount giving the maximum pro-proliferative effect: 50 ng/mL
[3]
  vascularisation in chorio-allantoic membrane assay: increased vascularisation
[4]
  b-catenin/TCF transcription activity: decreased b-catenin/TCF transcription activity
[5]
  endothelial-mesenchymal transition: induces in vitro an endothelial-mesenchymal transition

B1: rh-I10-sCD146: recombinant spliced variant of soluble CD146 containing intron 10, SEQ ID NO: 9 (protein, listed as Homo sapiens)
chain: MGLPRLVCAFLLAACCCCPRVAGVPGEAEQPAPELVEVEVGSTALLKCGLSQSQGNLSHVDWFSVHKEKRTLIFRVRQGQGQSEPGEYEQRLSLQDRGATLALTQVTPQDERIFLCQGKRPRSQEYRIQLRVYKAPEEPNIQVNPLGIPVNSKEPEEVATCVGRNGYPIPQVIWYKNGRPLKEEKNRVHIQSSQTVESSGLYTLQSILKAQLVKEDKDAQFYCELNYRLPSGNHMKESREVTVPVFYPTEKVWLEVEPVGMLKEGDRVEIRCLADGNPPPHFSISKQNPSTREAEEETTNDNGVLVLEPARKEHSGRYECQGLDLDTMISLLSEPQELLVNYVSDVRVSPAAPERQEGSSLTLTCEAESSQDLEFQWLREETGQVLERGPVLQLHDLKREAGGGYRCVASVPSIPGLNRTQLVNVAIFGEALPLGRDQVTPSGVVFKLFDKKPPAALGSSGAEGEAG
[6]
  transendothelial permeability: nor treatment with recombinant proteins corresponding to these variants modified transendothelial permeability
[3]
  vascularisation in chorio-allantoic membrane assay: increased vascularisation
[4]
  b-catenin/TCF transcription activity: decreased b-catenin/TCF transcription activity

B2: rh-I5-13-sCD146: recombinant spliced variant of soluble CD146 containing introns 5 and 13, SEQ ID NO: 8 (protein, listed as Homo sapiens)
chain: MVYIVRQFLLYNVSGSVYLDQLIVLLTAKFSILRIAGSRVHHSPFSGHLDGCSFLSLQHSLHTSLDMSRHENVFLGLTLSSKSAGLKGFQLAFVPGLLQGTGGYLDGPLPTPVDNPRVGLEVGLRLSLPPLPPCPGVHIQSSQTVESSGLYTLQSILKAQLVKEDKDAQFYCELNYRLPSGNHMKESREVTVPVFYPTEKVWLEVEPVGMLKEGDRVEIRCLADGNPPPHFSISKQNPSTREAEEETTNDNGVLVLEPARKEHSGRYECQGLDLDTMISLLSEPQELLVNYVSDVRVSPAAPERQEGSSLTLTCEAESSQDLEFQWLREETGQVLERGPVLQLHDLKREAGGGYRCVASVPSIPGLNRTQLVNVAIFGPPWMAFKERKVWVKENMVLNLSCEASGHPRPTISWNVNGTASEQDQDPQRVLSTLNVLVTPELLETGVECTASNDLGKNTSILFLELVNLTTLTPDSNTTTGLSTSTASPHTRANSTSTGKPGLAREQGCARASFLPCPSPESPVQKGE
[6]
  transendothelial permeability: nor treatment with recombinant proteins corresponding to these variants modified transendothelial permeability
[3]
  vascularisation in chorio-allantoic membrane assay: increased vascularisation
[4]
  b-catenin/TCF transcription activity: increased it
